Here are results for 22 compounds from US20100249145A1, “Inhibitors of VEGF Receptor and HGF Receptor Signaling” (Methylgene, Inc., priority 2005, published 2010).

pIC50: −log10 of the molar value. Where a name gives a salt, the structure may show the parent alone. Read-outs that look alike come from different tables or passages of the source. A value given as a limit tells only on which side of the number the result lay.

One assay has as its target T1, VEGF receptor KDR (Homo sapiens, UniProt P35968).
T1 construct: made in house; host or cells: Sf9 cells (Spodoptera frugiperda), recombinant baculovirus
As to the kind of experiment: In vitro receptor tyrosine kinase assay (DELFIA), VEGF receptor KDR. It is filed as biochemical. To be noted: ATP 0.6 uM, enzyme 5 nM.

For assay [1], the target named is T2, recombinant human c-Met/HGF receptor (Homo sapiens, UniProt P08581).
T2 construct: His tag (histidine tag from pBlueBacHis2A); made in house; host or cells: Hi-5 cells (Trichoplusia ni), recombinant baculovirus
As to the kind of experiment: In vitro receptor tyrosine kinase assay (DELFIA), c-Met/HGF receptor. It is filed as biochemical. The conditions noted are these: ATP 10 uM, enzyme 25 nM.

Another assay concerns the target TPR-MET fusion protein (Homo sapiens, UniProt P08581). As to the kind of experiment: C-Met phosphorylation cell-based assay (MNNGHOS cells, immunoblot). To be noted: Table 30, 3 hours treatment, read-out: C-Met cell-based Y1230-34-35 tpr-met inhibition (IC50). From the text: C-Met Phosphorylation Cell-Based Assay
The test system of assay [2] is A549. As to the kind of experiment: In vivo solid tumor disease model, A549 xenograft. Also on record: species or system female athymic CD 1 mice.
For another assay, the system named is U87 cells. In words: In vivo solid tumor disease model, U87 xenograft. On the set-up: species or system female athymic CD 1 mice. To be noted: U87MG; 100 mg/kg once daily PO; vehicle 5% DMSO - 1% Tween-80 in water; 14 days. From the text:
In Vivo Solid Tumor Disease Model
This test measures the capacity of compounds to inhibit solid tumor growth.
Tumor xenografts were established in the flank of female athymic CD 1 mice (Charles River Inc.), by subcutaneous injection of 1×10^6U87, A431 or SKLMS cells/mouse. Once established, tumors were then serially passaged s.c. in nude mice hosts. Tumor fragments from these host animals were used in subsequent compound evaluation experiments. For compound evaluation experiments female nude mice weighing approximately 20 g were implanted s.c. by surgical implantation with tumor fragments of ˜30 mg from donor tumors. When the tumors were approximately 100 mm^3 in size (˜7-10 days following implantation), the animals were randomized a separated into treatment and control groups. Each group contained 6-8 tumor-bearing mice, each of which was ear-tagged and followed individually throughout the experiment
Mice were weighed and tumor measurements are taken by calipers three times weekly, starting on Day 1. These tumor measurements were converted to tumor volume by the well-known formula (L+W/4)^34/3π. The experiment was terminated when the control tumors reached a size of approximately 1500 mm^3. In this model, the change in mean tumor volume for a compound treated group/the change in mean tumor volume of the control group (non-treated or vehicle treated)×100 (ΔT/ΔC) was subtracted from 100 to give the percent tumor growth inhibition (% TGI) for each test compound. In addition to tumor volumes, body weight of animals were monitored twice weekly for up to 3 weeks.
Regiment of administration was once daily.

For another assay, the system named is DU145. As to the kind of experiment: DU145 scattering inhibition (HGF dependent scattering). It is filed as cell-based. To be noted: Homo sapiens, DU-145, Table 31, read-out: DU145 scattering inhib IC50. From the text: (§1) HGF has well known activity in terms of inducing scattering and migration (wound healing) (Wells et al., Cell Motil Cytoskeleton. 2005 November 62(3):180-94; Miura et al., Urology 2001 December 58(6):1064-9; Nishimura et al., Int J. Urol. 1998 May 5(3):276-81; Wang et al., Mol Cancer Ther. 2003 November; 2(11):1085-92; and Christensen et al., Cancer Res. 2003 Nov. 1; 63(21):7345-55).

Assay [3] relates to A549. In words: A549 wound healing inhibition (HGF dependent migration). It is filed as cell-based. To be noted: Homo sapiens, Table 31, read-out: A549 wound healing inbib IC50.
From the text: as §1

[4] abbreviates: Table 30, read-out: VEGF(enz.) (IC50).
Where [5] appears, read: Table 30, read-out: C-Met (enz.) (IC50).

TPR-MET fusion protein, sequence (P08581 with tags, fused parts or gaps): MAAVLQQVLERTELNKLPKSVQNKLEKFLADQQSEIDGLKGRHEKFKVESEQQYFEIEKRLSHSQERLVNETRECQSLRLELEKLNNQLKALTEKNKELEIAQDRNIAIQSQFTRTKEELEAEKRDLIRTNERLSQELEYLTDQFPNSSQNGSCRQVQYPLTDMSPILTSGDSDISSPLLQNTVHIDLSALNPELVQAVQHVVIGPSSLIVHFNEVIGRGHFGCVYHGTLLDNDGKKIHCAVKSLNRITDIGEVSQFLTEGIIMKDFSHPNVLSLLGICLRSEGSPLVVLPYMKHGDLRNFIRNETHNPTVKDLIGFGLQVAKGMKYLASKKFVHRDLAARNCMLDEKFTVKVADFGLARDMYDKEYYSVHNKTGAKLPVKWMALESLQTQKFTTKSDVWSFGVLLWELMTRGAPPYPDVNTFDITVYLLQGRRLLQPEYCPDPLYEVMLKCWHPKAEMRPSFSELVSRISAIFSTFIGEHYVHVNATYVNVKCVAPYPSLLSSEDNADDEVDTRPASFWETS
T2 sequence (P08581 1078-1337): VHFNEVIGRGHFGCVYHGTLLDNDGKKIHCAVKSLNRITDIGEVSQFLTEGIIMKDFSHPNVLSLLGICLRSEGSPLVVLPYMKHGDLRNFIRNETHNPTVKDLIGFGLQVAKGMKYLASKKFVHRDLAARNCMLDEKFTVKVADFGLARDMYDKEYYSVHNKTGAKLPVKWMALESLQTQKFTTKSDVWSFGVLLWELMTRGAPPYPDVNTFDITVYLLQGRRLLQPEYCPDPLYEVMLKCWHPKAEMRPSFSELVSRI
T1 sequence (P35968 806-1356): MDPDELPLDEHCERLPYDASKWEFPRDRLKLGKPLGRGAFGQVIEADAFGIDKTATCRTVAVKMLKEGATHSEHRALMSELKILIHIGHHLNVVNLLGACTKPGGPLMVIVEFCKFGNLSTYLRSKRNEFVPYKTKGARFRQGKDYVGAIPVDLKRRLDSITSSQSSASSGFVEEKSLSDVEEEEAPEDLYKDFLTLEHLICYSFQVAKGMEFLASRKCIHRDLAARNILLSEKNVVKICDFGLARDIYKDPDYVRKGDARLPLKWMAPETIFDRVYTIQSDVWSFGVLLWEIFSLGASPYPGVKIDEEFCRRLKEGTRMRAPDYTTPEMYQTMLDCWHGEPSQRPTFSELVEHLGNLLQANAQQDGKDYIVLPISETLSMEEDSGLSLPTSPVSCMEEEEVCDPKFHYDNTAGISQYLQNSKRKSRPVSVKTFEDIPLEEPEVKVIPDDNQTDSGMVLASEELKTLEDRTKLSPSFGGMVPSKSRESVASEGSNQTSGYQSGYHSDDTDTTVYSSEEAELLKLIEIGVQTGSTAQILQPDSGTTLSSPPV

For orientation: pIC50 means −log10 of the IC50, conventionally taken in molar units. Consider `O=C(Cc1ccccc1)NC(=S)Nc1ccc(Oc2ncnc3cc(C(=O)NCCN4CCOCC4)sc23)c(F)c1` [Example 22, 1-(4-(6-(2-Morpholinoethylcarbamoyl)thieno[3,2-d]pyrimidin-4-yloxy)-3-fluorophenyl)-3-(2-phenylacetyl)thiourea], for which the pIC50 is 6.60 to 7.30 at VEGF receptor KDR (setting [4]), 6.60 to 7.30 in assay [1] (setting [5]) and > 7.30 at TPR-MET fusion protein.

On to `CC(C)N(CCNC(=O)c1cc2nccc(Oc3ccc(NC(=S)NC(=O)Cc4ccccc4)cc3F)c2s1)C(C)C` [Example 36, 7-[2-Fluoro-4-(3-phenylacetyl-thioureido)-phenoxy]-thieno[3,2-b]pyridine-2-carboxylic acid (2-diisopropylamino-ethyl)-amide, formate salt], for which the results for the pIC50 (at VEGF receptor KDR (setting [4]); in assay [1] (setting [5]); on TPR-MET fusion protein) were < 6.30, 6.60 to 7.30 and 6.60 to 7.30, respectively.

Regarding `O=C(Cc1ccccc1)NC(=S)Nc1ccc(Oc2ccnc3cc[nH]c23)c(F)c1` [Example 221, N-(4-(1H-Pyrrolo[3,2-b]pyridin-7-yloxy)-3-fluorophenylcarbamothioyl)-2-phenyl acetamide], the pIC50 at VEGF receptor KDR (setting [4]) is < 6.30; in assay [1] (setting [5]), > 7.30; on TPR-MET fusion protein, < 6.30.

For the compound `COC(=O)C(C)N(C(=S)NC(=O)Cc1ccccc1)c1ccc(Oc2ccnc3cc(C(N)=O)sc23)c(F)c1` (stereo not drawn) [Example 11, Methyl 2-(1-(4-(2-(carbamoyl)thieno [3,2-b]pyridin-7-yloxy)-3-fluorophenyl)-3-(2-phenylacetyl)thioureido) propanoate], the results for the pIC50 (at VEGF receptor KDR (setting [4]); in assay [1] (setting [5]); at TPR-MET fusion protein) were < 6.30, 6.60 to 7.30 and 6.60 to 7.30, respectively.

Take `O=C(Cc1ccccc1)NC(=S)Nc1ccc(Oc2ccnc3cc(C(=O)NCCN4CCOCC4)sc23)c(F)c1` [Example 2, l-(4-(2-(2-morpholinoethylcarbamoyl)thieno[3,2-b]pyridin-7-yloxy)-3-fluorophenyl)-3-(2-phenylacetyl)thiourea]: the negative logarithm of the IC50 (pIC50) at VEGF receptor KDR (setting [4]) is > 7.30; in assay [1] (setting [5]), 6.60 to 7.30; on TPR-MET fusion protein it was 6.60 to 7.30.

With “1-(4-(2- (morpholinylcarbamoyl) thieno[3,2- b]pyridin-7-yloxy)-3- fluorophenyl)-3-(2- phenylacetyl)thiourea [Example 3]”, the figures for the pIC50 (at VEGF receptor KDR (setting [4]); in assay [1] (setting [5]); at TPR-MET fusion protein) were 6.30 to 6.60, 6.60 to 7.30 and 6.60 to 7.30, respectively.

As for `CON(C)C(=O)c1cc2nccc(Oc3ccc(NC(=S)NC(=O)Cc4ccccc4)cc3F)c2s1` [Example 10, 1-(4-(2-(N-methoxy-N-methylcarbamoyl)thieno[3,2-b]pyridin-7-yloxy)-3-fluorophenyl)-3-(2-phenylacetyl)thiourea], the pIC50 (at VEGF receptor KDR (setting [4]); in assay [1] (setting [5]); on TPR-MET fusion protein) was 6.60 to 7.30 each time.

For the compound `Cn1cnc(-c2cc3nccc(Oc4ccc(NC(=S)NC(=O)Cc5ccccc5)cc4)c3s2)c1` [Example 201, N-(4-(2-(1-Methyl-1H-imidazol-4-yl)thieno[3,2-b]pyridin-7-yloxy)phenylcarbamothioyl)-2-phenylacetamide], the “Tumor Growth Inhibition (%)” value with A549 [2] (30 mg/kg once daily IP, vehicle DMSO, 10 days) is listed as “c (% TGI in the range of 25-49)”; with A549 [2] (75 mg/kg once daily PO, vehicle 5% DMSO - 1% Tween-80 in water, 10 days), “c (% TGI in the range of 25-49)”.

With `O=C(Cc1ccccc1)NC(=S)Nc1ccc(Oc2ccnc3cc(C(=O)N4CC[C@H](O)C4)sc23)c(F)c1` [Example 39, (S)-N-(3-Fluoro-4-(2-(3-hydroxypyrrolidine-1-carbonyl)thieno[3,2-b]pyridin-7-yloxy)phenylcarbamothioyl)-2-phenylacetamide], the “Tumor Growth Inhibition (%)” value with A549 [2] (30 mg/kg once daily IP, vehicle DMSO, 14 days) is listed as “b (% TGI in the range of 50-74)”.

For the compound `C#Cc1ccccc1CC(=O)NC(=S)Nc1ccc(Oc2ccnc3cc(-c4cn(CC)cn4)sc23)c(F)c1` [drawing 496], the “Tumor Growth Inhibition (%)” value with A549 [2] (40 mg/kg once daily p.o., 14 days) was “b (% TGI in the range of 50-74)”.

As to `O=C(Cc1ccccc1)NC(=S)Nc1ccc(Oc2ccnc3cc(-c4ccc(CN5CCOCC5)cc4)sc23)c(F)c1` [Example 56, 1-(3-Fluoro-4-(2-(4-(morpholinomethyl)phenyl)thieno[3,2-b]pyridin-7-yloxy)phenyl)-3-(2-phenylacetyl)thiourea], the “Tumor Growth Inhibition (%)” value with A549 [2] (30 mg/kg once daily IP, vehicle DMSO, 12 days) was “c (% TGI in the range of 25-49)”.

With `CN(C)C(=O)c1cc2ncnc(Oc3ccc(NC(=S)NC(=O)Cc4ccccc4)cc3F)c2s1` [Example 23, 1-(4-(6-(Dimethylcarbamoyl)thieno[3,2-d]pyrimidin-4-yloxy)-3-fluorophenyl)-3-(2-phenylacetyl)thiourea], the pIC50 on VEGF receptor KDR (setting [4]) was > 7.30; in assay [1] (setting [5]), 6.60 to 7.30; at TPR-MET fusion protein it was 6.60 to 7.30.

“1-(4-(6-(4-N- Methylpiperazylcarbamoyl) thieno[3,2- d]pyrimidin-4-yloxy)- 3-fluorophenyl)-3-(2- phenylacetyl)thiourea [Example 24]”: the pIC50 was 6.30 to 6.60 on VEGF receptor KDR (setting [4]), 6.60 to 7.30 in assay [1] (setting [5]) and < 6.30 at TPR-MET fusion protein.

`CCn1ccnc1-c1cc2nccc(Oc3ccc(NC(=S)NC(=O)Cc4ccccc4)cc3F)c2s1` [Example 73, N-(4-(2-(1-Ethyl-1H-imidadzol-2-yl)thieno[3,2-b]pyridin-7-yloxy)-3-fluorophenylcarbamothioyl)-2-phenylacetamide]: the “Tumor Growth Inhibition (%)” value with U87 cells is “c (% TGI in the range of 25-49)”.

As to `CN(Cc1ccco1)C(=O)c1cc2nccc(Oc3ccc(NC(=S)NC(=O)Cc4ccccc4)cc3F)c2s1` [Example 35, 7-[2-Fluoro-4-(3-phenylacetyl-thioureido)-phenoxy]-thieno[3,2-b]pyridine-2-carboxylic acid furan-2-ylmethyl-methyl-amide], the pIC50 at VEGF receptor KDR (setting [4]) is 6.60 to 7.30; in assay [1] (setting [5]) it was 6.60 to 7.30; at TPR-MET fusion protein, > 7.30.

As to `O=C(Cc1ccccc1)NC(=S)Nc1ccc(Oc2ncnc3cc(C(=O)N4CCCC4)sc23)c(F)c1` [Example 142, N-(3-Fluoro-4-(6-(pyrrolidine-1-carbonyl)thieno[3,2-d]pyrimidin-4-yloxy)phenylcarbamothioyl)-2-phenylacetamide], the pIC50 on VEGF receptor KDR (setting [4]) is > 7.30; in assay [1] (setting [5]), 6.60 to 7.30; on TPR-MET fusion protein it was > 7.30.

As for `C#Cc1ccccc1CC(=O)NC(=S)Nc1ccc(Oc2ccnc3cc(-c4cn(C)cn4)sc23)c(F)c1` [drawing 451], the pIC50 was > 6.00 with DU145; > 7.30 at VEGF receptor KDR (Table 31, read-out: VEGFR IC50); > 7.30 in assay [1] (Table 31, read-out: CMet ic50); > 6.00 in the assay with A549 [3].

As to `CC(=O)N1CC=C(c2cc3nccc(Oc4ccc(NC(=S)NC(=O)Cc5ccc(F)cc5)cc4F)c3s2)CC1`, the pIC50 with DU145 is > 6.00; on VEGF receptor KDR (Table 31, read-out: VEGFR IC50), > 7.30; in assay [1] (Table 31, read-out: CMet ic50) it was > 7.30; in the assay on A549 [3], > 6.00.

Consider `C=C(F)c1cccc(CC(=O)NC(=S)Nc2ccc(Oc3ccnc4cc(-c5cn(C)cn5)sc34)c(F)c2)c1`, for which the pIC50 with DU145 is 5.30 to 6.00; at VEGF receptor KDR (Table 31, read-out: VEGFR IC50), 6.60 to 7.30; in assay [1] (Table 31, read-out: CMet ic50), 6.60 to 7.30; in the assay on A549 [3], 5.30 to 6.00.

In the case of `C#Cc1cc(F)ccc1CC(=O)NC(=S)Nc1ccc(Oc2ccnc3cc(-c4cn(CC)cn4)sc23)c(F)c1`, the pIC50 in the assay on DU145 was > 6.00; at VEGF receptor KDR (Table 31, read-out: VEGFR IC50) it was > 7.30; in assay [1] (Table 31, read-out: CMet ic50), > 7.30; in the assay with A549 [3], > 6.00.

As to `O=C(Cc1ccccc1)NC(=S)Nc1ccc(Oc2ccnc3cc(-c4ccc(CN5CCCC5)cn4)sc23)c(F)c1`, the pIC50 is > 6.00 in the assay with DU145; > 7.30 at VEGF receptor KDR (Table 31, read-out: VEGFR IC50); > 7.30 in assay [1] (Table 31, read-out: CMet ic50); > 6.00 with A549 [3].

`C=C(F)c1ccccc1CC(=O)NC(=S)Nc1ccc(Oc2ccnc3cc(-c4cn(C)cn4)sc23)c(F)c1`: the pIC50 in the assay with DU145 is > 6.00; on VEGF receptor KDR (Table 31, read-out: VEGFR IC50), > 7.30; in assay [1] (Table 31, read-out: CMet ic50) it was > 7.30; in the assay with A549 [3], > 6.00.
